The text below walks through data of patent US20100069400A1, “METHODS FOR TREATING INFLAMMATION AND RELATED CONDITIONS” (Ore Pharmaceuticals Inc., priority 2008, published 2010).

For test [1], the target named is 5-HT2A (Homo sapiens, UniProt P28223). As to conditions: cited from earlier work.
The subject of test [2] is IL-1α. Briefly: LPS-induced plasma IL-1α, bead-based immunoassay (Luminex). The following applies: mouse plasma. Type of test: in vivo, mice. The protocol:
(§1) The intriguing bi-phasic modulation of NF-κB activation described in Example 1 was further investigated by repeating the LPS induction experiment and performing subsequent imaging analysis at 0 hour and 2, 4, 6 and 24 hours post-LPS treatment. Moreover, blood samples were collected at each of the timepoints and plasma was prepared for evaluation of effects of irindalone on quantities of circulating cytokines. […] Specifically, irindalone suppressed LPS-induced pro-inflammatory cytokines eotaxin (FIG. 3A) and TNF-α (FIG. 3B) at the 2-hour time point and IL-1α at both 2 hours and 6 hours post-LPS injection (FIG. 3C).

Test [3] addresses histamine H1 receptor (Homo sapiens, UniProt P35367). As to conditions: compared with its 5-HT2A affinity; cited from earlier work.
Test [4] has as its system NF-κB. The test can be described thus: in vivo imaging of LPS-induced NF-κB:luciferase reporter activation in NF-κB:LUC transgenic mice. The following applies: for LPS-induced NF-κB reporter (fold change from 0 hour), Example 1: 1 or 10 mg/kg p.o. one hour prior to sLPS 2.5 mg/kg i.v., whole body imaging; for LPS-induced NF-κB activation, Example 2 (FIG. 2): repeat experiment. The protocol:
Effects of irindalone on rodent physiological processes were evaluated using bio-photonic in vivo imaging. Specifically, this technology was used to investigate temporal and spatial modulation of physiological processes following acute compound administration. Transgenic mice expressing a firefly luciferase reporter driven by a series of promoters that represent a wide spectrum of potential disease states were used. Light emitted by luciferase in the presence of a luciferin substrate was detected and analyzed using a highly sensitive CCD imaging system. Mice were anesthetized and imaged at the indicated time points followed by visual and quantitative analysis based on counting photons of light emitted from specific regions of interest. Observations were followed by confirmatory and additional heuristic studies, including direct measurement of luciferase activity in harvested tissues and organs. As detailed below, the properties of irindalone were analyzed on three distinct transgenic lines, NF-κB:LUC, AP-1:LUC and HO-1:LUC. For this Example, the NF-κB transgenic mouse line was constructed using three NF-κB response elements fused to a firefly luciferase reporter. The effect of acute compound administration on inflammatory and immunomodulatory processes was monitored using activation of the luciferase reporter as a surrogate readout for activation of NF-κB transcription factor. […] For these studies, male mice (n=5 per group) were administered irindalone (0, 1 or 10 mg/kg, p.o.) one hour prior to injection with soluble lipopolysaccharide (sLPS, 2.5 mg/kg, i.v.). Whole body images were obtained prior to drug pretreatment (0 hour time point) and again at 2, 4, and 6 hours post-LPS treatment. […] The intriguing bi-phasic modulation of NF-κB activation described in Example 1 was further investigated by repeating the LPS induction experiment and performing subsequent imaging analysis at 0 hour and 2, 4, 6 and 24 hours post-LPS treatment. Moreover, blood samples were collected at each of the timepoints and plasma was prepared for evaluation of effects of irindalone on quantities of circulating cytokines.
Background: A reporter such as luciferase makes a cellular process visible.

Test [5] concerns IL-13. The test can be described thus: plasma IL-13 in normal unstimulated rats, bead-based multiplex immunoassay (Luminex). Type of test: in vivo. As to conditions: 1 and 5 mg/kg oral twice daily for 7 days, blood approximately 4 hours after last dose. The protocol:
(§2) The effects of irindalone were also investigated in normal unstimulated rats that were subject to twice-daily oral dosing with irindalone (1 and 5 mg/kg) for 7 consecutive days. Blood was collected approximately 4 hours after administration of the last dose, plasma was prepared and cytokines were measured using a bead-based multiplex immunoassay (Luminex Corp.).

Test [6] relates to eotaxin. Briefly: LPS-induced plasma eotaxin, bead-based immunoassay (Luminex). It counts as in vivo, mice. The following applies: 2-hour time point post-LPS; mouse plasma. The protocol:
as §1

Test [7] relates to TNF-α. The test can be described thus: LPS-induced plasma TNF-α, bead-based immunoassay (Luminex). Type of test: in vivo, mice. The following applies: 2-hour time point post-LPS; mouse plasma. The protocol:
as §1

Test [8] deals with CXCL1 (GRO/KC). The test can be described thus: plasma CXCL1 (GRO/KC) in normal unstimulated rats, bead-based multiplex immunoassay (Luminex). It counts as in vivo. As to conditions: 1 and 5 mg/kg oral twice daily for 7 days, blood approximately 4 hours after last dose, not dose-proportionately. The protocol:
as §2

For test [9], the system named is HO-1 promoter. Briefly: CdCl2-induced HO-1:LUC promoter activation in HO-1:LUC transgenic mice. Type of test: in vivo. The source says: The HO-1 luciferase transgenic mouse line was constructed using 15,000 base pairs of the HO-1 promoter fused to a firefly luciferase reporter. The HO-1 promoter is highly responsive to oxidative stress, hypoxia and other stimuli that influence the oxidative state of the animal. Increased expression of the HO-1 pathway limits tissue damage in response to a wide variety of proinflammatory stimuli associated with oxidative stress including hypoxia, hyperoxia, cytokines, nitric oxide (NO), heavy metals, ultraviolet-A radiation, heat shock, shear stress, hydrogen peroxide, and thiol (—SH)-reactive substances, endotoxin, allograft rejection, etc. This promoter region has several enhancer sequences that confer responsiveness to the wide set of stimuli mentioned above. In this mouse model, luciferase expression is an indicator of the induction of the HO-1 promoter/gene expression. In order to assess the ability of irindalone to modulate the oxidative state of mice stressed with cadmium chloride (CdCl2), male mice (n=5 per group) were dosed with irindalone (0, 1 or 10 mg/kg, p.o.) one hour prior to injection with CdCl2 (2 mg/kg, i.v.). Whole body images were obtained prior to irindalone pretreatment (0 hour) and again at 4, 6, and 24 hours post-CdCl2 treatment. Irindalone suppressed CdCl2-induced luciferase expression (FIG. 6). […] Additional anatomical regions also posted trends in suppression at early time points.

The subject of test [10] is adrenergic receptor al. The following applies: compared with its 5-HT2A affinity; cited from earlier work.
Test [11] concerns AP-1. Briefly: TPA-induced AP-1:LUC reporter activation in skin of AP-1:LUC transgenic mice. As to conditions: irindalone 1 and 10 mg/kg p.o. (dose-dependent) or DEX 4.5 mg/kg i.p. one hour prior to topical TPA 10 μg. Type of test: in vivo.
Method: The AP-1:LUC transgenic line was constructed with four copies of the AP-1 response element fused to a firefly luciferase reporter. […] For the current studies, the backs of mice (n=5 per group) were shaved (area size approximately 1.5×3 cm) and pre-imaged. Mice were administered vehicle (saline), irindalone (dosing at 1 and 10 mg/kg; p.o.) or dexamethasone as a positive control (DEX, 4.5 mg/kg, i.p.) one hour prior to topical application of the phorbol ester 12-O-tetradecanoyl-phorbol-13-acetate (TPA, 0.05 mg/ml in acetone; total dose 10 μg).
Test [12] deals with IL-10. Briefly: LPS-induced plasma IL-10, bead-based immunoassay (Luminex). As to conditions: all time points measured (2, 4, 6, 24 hours post-LPS), most pronounced at 2 and 4 hours; mouse plasma. It counts as in vivo, mice. The protocol: as §1
For test [13], the system named is NF-κB. Briefly: LPS-induced NF-κB activation in harvested organs and tissues (luciferase/protein assay) of NF-κB:LUC transgenic mice. It counts as in vivo. As to conditions: 10 mg/kg p.o. one hour prior to LPS 2.5 mg/kg i.v.; 2 hours post-LPS; most pronounced changes in visceral fat, gastrointestinal tract and brain. The protocol: To determine whether these effects can be localized to a particular tissue or organ system, additional experimentation was performed (similar in design to that as described in Example 1). For these studies, male mice (n=5 per group) were administered irindalone (0 and 10 mg/kg, p.o.) one hour prior to injection with LPS (2.5 mg/kg, i.v.). Whole body images were obtained prior to drug pretreatment (0 hour) and again at 2 hours post-LPS treatment (data not shown). A broad collection of internal tissues and organs were then removed and snap frozen for further analysis. Specifically, harvested tissues were homogenized, cells were lysed and utilized for luciferase and protein quantification assays to obtain relative units of light/μg protein. Results (FIG. 4) illustrate normalized comparisons between LPS alone versus irindalone+LPS.

pIC50: −log10 of the molar value.

Chain of 5-HT2A (P28223 whole entry, species assumed): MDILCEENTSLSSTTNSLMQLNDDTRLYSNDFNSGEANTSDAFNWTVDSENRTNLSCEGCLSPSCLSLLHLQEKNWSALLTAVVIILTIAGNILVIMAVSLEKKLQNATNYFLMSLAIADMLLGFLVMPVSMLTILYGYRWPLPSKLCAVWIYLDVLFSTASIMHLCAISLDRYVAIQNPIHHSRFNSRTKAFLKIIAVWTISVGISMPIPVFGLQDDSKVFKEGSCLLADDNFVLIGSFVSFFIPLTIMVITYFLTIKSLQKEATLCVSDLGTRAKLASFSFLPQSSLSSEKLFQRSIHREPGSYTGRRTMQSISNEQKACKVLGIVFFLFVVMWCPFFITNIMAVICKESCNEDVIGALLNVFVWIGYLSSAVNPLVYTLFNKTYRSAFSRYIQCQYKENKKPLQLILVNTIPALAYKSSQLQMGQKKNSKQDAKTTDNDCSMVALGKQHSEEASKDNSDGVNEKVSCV
Chain of histamine H1 receptor (P35367 whole entry, species assumed): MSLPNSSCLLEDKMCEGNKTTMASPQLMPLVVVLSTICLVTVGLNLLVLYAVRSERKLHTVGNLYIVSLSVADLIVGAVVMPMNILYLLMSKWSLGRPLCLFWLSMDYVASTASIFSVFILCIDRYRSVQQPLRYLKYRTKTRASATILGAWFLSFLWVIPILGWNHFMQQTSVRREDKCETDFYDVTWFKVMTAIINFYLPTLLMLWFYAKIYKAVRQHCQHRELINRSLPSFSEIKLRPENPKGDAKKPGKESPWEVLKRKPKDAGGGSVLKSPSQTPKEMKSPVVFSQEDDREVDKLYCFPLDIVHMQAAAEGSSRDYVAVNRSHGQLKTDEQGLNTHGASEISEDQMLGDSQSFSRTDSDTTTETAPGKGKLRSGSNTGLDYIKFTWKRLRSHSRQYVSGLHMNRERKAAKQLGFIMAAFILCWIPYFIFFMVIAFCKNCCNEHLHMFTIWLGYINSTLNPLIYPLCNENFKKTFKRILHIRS

The term pIC50 denotes the negative decadic logarithm of the IC50, by convention in mol/L. Consider `O=C1NCCN1CCN1CCN([C@@H]2C[C@@H](c3ccc(F)cc3)c3ccccc32)CC1` [Irindalone, (+)-(1R,3S)-1-[2-[4-[3-(p-fluorophenyl)-1-indanyl]-1-piperazinyl]-ethyl]-2-imidazolidinone], for which the pIC50 in test [1] (read-out: affinity (IC50) for 5-HT2A) was 8.47. The “LPS-induced IL-1α level in plasma” value in test [2] (2 hours post-LPS injection) and in test [2] (6 hours post-LPS injection) was “suppressed” throughout. Further, in test [3], the “affinity for histamine H1 receptor, in words” value is given as “somewhat weaker affinity”. Also, the figures for the “LPS-induced NF-κB reporter (fold change from 0 hour), Example 1” value in test [4] (after 2 hours) and in test [4] (after 6 hours) were “broad suppression” and “broad enhancement”, respectively. For the same molecule, the “LPS-induced NF-κB activation, Example 2 (FIG. 2)” value in [4] (early time point (2 hours) post-LPS) is “suppression”; in [4] (later time points (4, 6, 24 hours imaged) post-LPS), “enhancement”. Besides, the “IL-13 levels in plasma compared to vehicle” value in test [5] is given as “increased”. The “LPS-induced eotaxin level in plasma” value in test [6] is given as “suppressed”. Also, the “LPS-induced TNF-α level in plasma” value in test [7] was “suppressed”. For the same molecule, in [8], the “CXCL1 (GRO/KC) levels in plasma” value is recorded as “lowered”. Moreover, the “CdCl2-induced luciferase expression (HO-1 promoter)” value in test [9] (1 or 10 mg/kg p.o. one hour prior to CdCl2 2 mg/kg i.v., whole body images at 4, 6, 24 hours) is recorded as “suppressed”. In [9] (mid back region, all time points (4, 6, 24 hours)), the “CdCl2-induced luciferase expression (HO-1 promoter), mid back region” value is listed as “Dramatic suppression”. Also, the “CdCl2-induced luciferase expression (HO-1 promoter), sublingual and lower back regions” value in test [9] (sublingual and lower back regions, earlier time points) was “Dramatic suppression”. The “affinity for adrenergic receptor al, in words” value in test [10] is given as “somewhat weaker affinity”. For the same molecule, in test [11], the “TPA-induced AP-1 activation in skin” value was “dramatically repressed”. In addition, in [12], the “anti-inflammatory cytokine IL-10 level in plasma” value is on record as “increase”. For the same molecule, the “LPS-induced NF-κB activation in harvested tissues (units of light/μg protein, normalized)” value in [13] is reported as “Tissue-Selective Effect”.

Take `O=C1NCCN1CCN1CCN([C@H]2C[C@H](c3ccc(F)cc3)c3ccccc32)CC1` [Lu 21-099]: the “5-HT2A affinity, in words” value in test [1] (compared with irindalone) is “weaker 5-HT2A affinity”.
